target: T1, human PAH with the R408W mutation (Homo sapiens, UniProt P00439, R408W); experiment: Cell Based Phenylalanine Flux Assay; settings: A375 cells expressing R408W PAH; 24 hrs with compound, then 20 µM sepiapterin and 800 µM 13C9,15N-Phenylalanine for 4 hours; 13C-Tyrosine by LC-MS; average where tested multiple times; read-out: AC50;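 note: after compound treatment, cells received sepiapterin plus isotope-labelled Phenylalanine for 4 hours, then labelled Tyrosine in the medium was quantified, 10-point 2-fold dilution series run in duplicate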
T1 construct: expressed in transfected cells
T1 sequence (P00439 1-452 R408W): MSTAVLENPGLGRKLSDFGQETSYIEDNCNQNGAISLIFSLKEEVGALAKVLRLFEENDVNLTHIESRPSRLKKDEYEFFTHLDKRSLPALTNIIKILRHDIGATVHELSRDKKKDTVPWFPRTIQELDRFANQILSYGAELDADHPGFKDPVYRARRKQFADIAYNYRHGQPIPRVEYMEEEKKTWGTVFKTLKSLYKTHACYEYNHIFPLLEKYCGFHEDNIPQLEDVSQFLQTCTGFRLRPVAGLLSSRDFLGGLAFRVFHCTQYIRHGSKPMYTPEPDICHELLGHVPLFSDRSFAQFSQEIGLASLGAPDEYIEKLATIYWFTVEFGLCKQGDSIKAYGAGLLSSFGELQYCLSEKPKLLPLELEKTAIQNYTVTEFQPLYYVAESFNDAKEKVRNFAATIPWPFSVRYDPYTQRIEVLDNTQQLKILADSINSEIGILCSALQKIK

AC50 [nM]	Structure (SMILES)
1000 to 5000	Cn1ccc(-c2nnc(C(=O)N3CCc4[nH]cnc4C3c3cc4c(OC(F)F)cccn4n3)o2)n1 (stereo not shown)
1000 to 5000	FC1(F)CC(c2nnc(N3CCc4[nH]cnc4C3c3cc4c(C5CC5)cccn4n3)o2)C1 (stereo not shown)
1000 to 5000	Cc1cccn2nc(C3c4nc[nH]c4CCN3C(=O)c3cc(C(C)(C)C)nn3C)cc12 (stereo not shown)
1000 to 5000	O=C(c1nnc(-c2cnn(C(F)(F)F)c2)o1)N1CCc2[nH]cnc2C1c1cc2cccc(F)n2n1 (stereo not shown)
1000 to 5000	Cc1cccc2cc(C3c4nc[nH]c4CCN3C(=O)c3cnn4ccccc34)nn12 (stereo not shown)
> 5000	Fc1ncccc1-c1nnc(N2CCc3[nH]cnc3C2c2cc3ccccn3n2)o1 (stereo not shown)
1000 to 5000	Cc1nnc(N2CCc3[nH]cnc3C2c2cc3cccc(C)n3n2)o1 (stereo not shown)
1000 to 5000	Fc1cccnc1-c1nnc(N2CCc3[nH]cnc3C2c2cc3c(C4CC4)cccn3n2)o1 (stereo not shown)
1000 to 5000	Cc1cccc2cc(C3c4nc[nH]c4CCN3C(=O)c3cnco3)nn12 (stereo not shown)
1000 to 5000	FC(F)c1cccn2nc(C3c4nc[nH]c4CCN3c3nnc(-c4cnccn4)o3)cc12 (stereo not shown)

Structure (SMILES)	AC50 [nM]
Cc1nc(C(C)(C)O)oc1C(=O)N1CCc2[nH]cnc2[C@@H]1c1cc2cccc(C(F)(F)F)n2n1 (single isomer, unassigned)	1000 to 5000

same assay, conditions: A375 cells expressing human PAH R408W; 24 hrs compound incubation; 13C-Tyrosine by LC-MS; average where tested multiple times; read-out: AC50

AC50 [nM]	Structure (SMILES)
< 500	FC(F)(F)Oc1cccn2nc([C@@H]3c4nc[nH]c4CCN3c3ncccn3)cc12 [Example 2270, (S)-5-(pyrimidin-2-yl)-4-(4-(trifluoromethoxy)pyrazolo[1,5-a]pyridin-2-yl)-4,5,6,7-tetrahydro-1H-imidazo[4,5-c]pyridine]
> 5000	O=C(c1nc2ccccc2o1)N1CCc2[nH]cnc2[C@@H]1c1cc2c(C(F)(F)F)cccn2n1 [Example 2055, (R)-benzo[d]oxazol-2-yl(4-(4-(trifluoromethyl)pyrazolo[1,5-a]pyridin-2-yl)-1,4,6,7-tetrahydro-5H-imidazo[4,5-c]pyridin-5-yl)methanone]
> 5000	FC(F)(F)c1nnc(N2CCc3[nH]cnc3[C@@H]2c2cc3c(Cl)cccn3n2)o1 [Example 1848, (R)-2-(4-(4-chloropyrazolo[1,5-a]pyridin-2-yl)-6,7-dihydro-1H-imidazo[4,5-c]pyridin-5(4H)-yl)-5-(trifluoromethyl)-1,3,4-oxadiazole]
1000 to 5000	Fc1cccc(N2CCc3[nH]cnc3[C@@H]2c2cc3c(F)cccn3n2)n1 [Example 1954, (R)-4-(4-fluoropyrazolo[1,5-a]pyridin-2-yl)-5-(6-fluoropyridin-2-yl)-4,5,6,7-tetrahydro-1H-imidazo[4,5-c]pyridine]
1000 to 5000	Cc1cccc2cc([C@@H]3c4nc[nH]c4CCN3C(=O)c3nnc(-c4cn(C)cn4)o3)nn12 [Example 2395, (S)-(5-(1-methyl-1H-imidazol-4-yl)-1,3,4-oxadiazol-2-yl)(4-(7-methylpyrazolo[1,5-a]pyridin-2-yl)-6,7-dihydro-1H-imidazo[4,5-c]pyridin-5(4H)-yl)methanone]

same assay, conditions: A375 cells expressing human R408W PAH; 24 hrs compound incubation; 13C-Tyrosine by LC-MS; average where tested multiple times; read-out: AC50

AC50 [nM]	Structure (SMILES)
1000 to 5000	O=C(c1ocnc1C(F)F)N1CCc2[nH]cnc2[C@@H]1c1cc2cccc(Cl)n2n1 [Example 959, (R)-(4-(7-chloropyrazolo[1,5-a]pyridin-2-yl)-6,7-dihydro-1H-imidazo[4,5-c]pyridin-5(4H)-yl)(4-(difluoromethyl)oxazol-5-yl)methanone]
500 to 1000	Cc1nc([C@H](C)O)oc1C(=O)N1CCc2[nH]cnc2[C@H]1c1cc2cccc(Cl)n2n1 [Example 1212, ((S)-4-(7-chloropyrazolo[1,5-a]pyridin-2-yl)-6,7-dihydro-1H-imidazo[4,5-c]pyridin-5(4H)-yl)(2-((S)-1-hydroxyethyl)-4-methyloxazol-5-yl)methanone]
1000 to 5000	Cn1nc(C(F)F)cc1C(=O)N1CCc2[nH]cnc2[C@@H]1c1cc2c(Cl)cccn2n1 [Example 1369, (R)-(4-(4-chloropyrazolo[1,5-a]pyridin-2-yl)-6,7-dihydro-1H-imidazo(4,5-c]pyridin-5(4H)-yl)(3-(difluoromethyl)-1-methyl-1H-pyrazol-5-yl)methanone]
> 5000	O=C(c1nnc(-c2ncccc2F)o1)N1CCc2[nH]cnc2[C@@H]1c1cc2cccc(Cl)n2n1 [Example 983, (R)-(4-(7-chloropyrazolo[1,5-a]pyridin-2-yl)-6,7-dihydro-1H-imidazo[4,5-c]pyridin-5(4H)-yl)(5-(3-fluoropyridin-2-yl)-1,3,4-oxadiazol-2-yl)methanone]
< 500	O=C(c1nnc(-c2ccn(C(F)(F)F)n2)o1)N1CCc2[nH]cnc2[C@H]1c1cc2ccccn2n1 [Example 1506, (S)-(4-(pyrazolo[1,5-a]pyridin-2-yl)-6,7-dihydro-1H-imidazo[4,5-c]pyridin-5(4H)-yl)(5-(1-(trifluoromethyl)-1H-pyrazol-3-yl)-1,3,4-oxadiazol-2-yl)methanone]
1000 to 5000	COc1ccc(-c2nnc(C(=O)N3CCc4[nH]cnc4[C@@H]3c3cc4c(Cl)cccn4n3)o2)nc1 [Example 1298, (R)-(4-(4-chloropyrazolo[1,5-a]pyridin-2-yl)-6,7-dihydro-1H-imidazo[4,5-c]pyridin-5(4H)-yl)(5-(5-methoxypyridin-2-yl)-1,3,4-oxadiazol-2-yl)methanone]
500 to 1000	O=C(c1cnn2cc(C3CC3)ccc12)N1CCc2[nH]cnc2[C@H]1c1cc2cccc(F)n2n1 [Example 1790, (S)-(6-cyclopropylpyrazolo[1,5-a]pyridin-3-yl)(4-(7-fluoropyrazolo[1,5-a]pyridin-2-yl)-6,7-dihydro-1H-imidazo[4,5-c]pyridin-5(4H)-yl)methanone]
> 5000	CC(C)(O)c1nc(Cl)c(C(=O)N2CCc3[nH]cnc3[C@@H]2c2cc3c(Cl)cccn3n2)o1 [Example 721, (R)-(4-chloro-2-(2-hydroxypropan-2-yl)oxazol-5-yl)(4-(4-chloropyrazolo[1,5-a]pyridin-2-yl)-6,7-dihydro-1H-imidazo[4,5-c]pyridin-5(4H)-yl)methanone]
1000 to 5000	CC(C)(F)c1nnc(C(=O)N2CCc3[nH]cnc3[C@@H]2c2cc3c(F)cccn3n2)o1 [Example 1025, (R)-(5-(2-fluoropropan-2-yl)-1,3,4-oxadiazol-2-yl)(4-(4-fluoropyrazolo[1,5-a]pyridin-2-yl)-6,7-dihydro-1H-imidazo[4,5-c]pyridin-5(4H)-yl)methanone]
< 500	Cn1cc(C(=O)N2CCc3[nH]cnc3[C@H]2c2cc3ccccn3n2)c(C(F)F)n1 [Example 662, (S)-(3-(difluoromethyl)-1-methyl-1H-pyrazol-4-yl)(4-(pyrazolo[1,5-a]pyridin-2-yl)-6,7-dihydro-1H-imidazo[4,5-c]pyridin-5(4H)-yl)methanone]
> 5000	O=C(c1nnc(-c2cnccn2)o1)N1CCc2[nH]cnc2[C@@H]1c1cc2c(C(F)(F)F)cccn2n1 [Example 1301, (R)-(5-(pyrazin-2-yl)-1,3,4-oxadiazol-2-yl)(4-(4-(trifluoromethyl)pyrazolo[1,5-a]pyridin-2-yl)-6,7-dihydro-1H-imidazo[4,5-c]pyridin-5(4H)-yl)methanone]
< 500	Cc1cccn2nc([C@@H]3c4nc[nH]c4CCN3c3ncc(C(F)(F)F)cn3)cc12 [Example 1754, (S)-4-(4-methylpyrazolo[1,5-a]pyridin-2-yl)-5-(5-(trifluoromethyl)pyrimidin-2-yl)-4,5,6,7-tetrahydro-1H-imidazo[4,5-c]pyridine]
